Test results from BindingDB's records for doi:10.1021/jm0311442 (University of Newcastle, 2004).
pIC50: −log10 of the molar value.

Target: Cyclin-dependent kinase 1/G2/mitotic-specific cyclin-B (Marthasterias glacialis, UniProt P15206+Q9DGD3)
Assay: Kinase Inhibition Assay

Sequence of Cyclin-dependent kinase 1/G2/mitotic-specific cyclin-B (Q9DGD3 whole entry): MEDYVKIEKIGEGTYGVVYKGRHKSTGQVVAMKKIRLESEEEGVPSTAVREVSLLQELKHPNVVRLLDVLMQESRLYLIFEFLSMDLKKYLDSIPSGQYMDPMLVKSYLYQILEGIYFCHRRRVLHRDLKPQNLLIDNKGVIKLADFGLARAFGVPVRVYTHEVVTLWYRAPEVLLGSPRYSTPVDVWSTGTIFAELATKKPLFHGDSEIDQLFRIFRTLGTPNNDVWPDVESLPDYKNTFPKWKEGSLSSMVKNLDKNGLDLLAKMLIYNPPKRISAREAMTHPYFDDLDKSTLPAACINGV
Sequence of Cyclin-dependent kinase 1/G2/mitotic-specific cyclin-B (P15206 whole entry): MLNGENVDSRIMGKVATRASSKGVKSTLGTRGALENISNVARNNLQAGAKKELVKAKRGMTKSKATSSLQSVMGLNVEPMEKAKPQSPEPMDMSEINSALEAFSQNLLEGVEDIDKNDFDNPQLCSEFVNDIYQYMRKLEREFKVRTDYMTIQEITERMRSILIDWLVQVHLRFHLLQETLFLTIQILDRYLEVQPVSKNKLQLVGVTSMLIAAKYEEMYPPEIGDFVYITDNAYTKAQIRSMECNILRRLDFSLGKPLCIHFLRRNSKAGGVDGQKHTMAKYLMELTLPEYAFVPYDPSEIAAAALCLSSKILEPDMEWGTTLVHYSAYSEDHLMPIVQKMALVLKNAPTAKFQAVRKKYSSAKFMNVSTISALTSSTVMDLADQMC

pIC50: 7.10
Compound: CS(=O)(=O)c1ccc(Nc2nc(OCC3CCCCC3)c3[nH]cnc3n2)cc1 [6-(cyclohexylmethoxy)-N-(4-methanesulfonylphenyl)-9H-purin-2-amine]
